US9943501B2 (KOJUN JAPAN CO., LTD., priority 2014, dated 2018)
“Also recorded” adds a separate entry of the source. Values belong to the molecule of their own block, whether it stands above or below them.

Key:
[1] = target: T1, human-derived PPARγ ligand-binding domain (Homo sapiens, UniProt P37231); assay: PPARγ activation test (GAL4 chimera / luciferase reporter in CV-1 cells); type: cell-based; conditions: for PPARγ ligand activity, ratio (%) of the activity of each synthesized product to the activity of the control substance (DMSO): control = 100
T1 construct: expressed in transfected cells; host or cells: CV-1 cells (African green monkey kidney-derived)
T1 sequence (P37231 238-503 limits assumed): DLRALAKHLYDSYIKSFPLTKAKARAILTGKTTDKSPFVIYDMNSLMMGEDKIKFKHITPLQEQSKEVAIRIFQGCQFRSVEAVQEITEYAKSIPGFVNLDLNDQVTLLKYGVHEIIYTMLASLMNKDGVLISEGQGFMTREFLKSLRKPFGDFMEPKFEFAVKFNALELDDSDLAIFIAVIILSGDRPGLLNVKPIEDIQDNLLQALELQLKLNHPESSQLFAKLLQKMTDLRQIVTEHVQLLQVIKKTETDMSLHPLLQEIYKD
Description: A measurement method for the PPAR activation test in Examples below were conducted as described below.
(1) PPARγ Activation Test
A plasmid pM-PPARγ for the expression of a chimeric protein composed of a human-derived PPARγ ligand-binding domain and a DNA-binding domain of a yeast-derived GAL4 transcription factor, and a plasmid p4×UASg-tk-luc containing a Cypridina-derived luciferase structural gene linked downstream of a GAL4 responsive sequence designed such that its expression was controlled by this chimeric protein, were prepared. Also, a Renilla-derived luciferase expression plasmid pRL-CMV having a viral expression promoter for constitutive intracellular expression was prepared as a plasmid for the correction of transfection efficiency. On the other hand, DMEM containing 10% FBS was used as a medium for CV-1 cells (African green monkey kidney-derived). The CV-1 cells were seeded at 4.5×10^5 cells over a 100-mm Petri dish and cultured in an incubator at 37° C. in a 5% CO2 environment.
(1-2) Transformation of CV-1 Cell
The CV-1 cells thus cultured for 24 hours were cotransfected with 2.0 μg of pM-PPARγ, 4.0 μg of p4×UASg-tk-luc, and 0.04 μg of pRL-CMV to transform the CV-1 cells. The transformation was carried out by the liposome method using LipofectAMINE(R) Reagent (a product of Invitrogen Corp.). After the transformation operation, the cells were cultured at 37° C. for 3.5 hours in a 5% CO2 environment.
(1-3) Addition of Test Sample
The CV-1 cells thus incubated were recovered by trypsin treatment, and […] thereof was inoculated at a concentration of 1×10^5 cells/mL to a 96-well plate. Each test sample was diluted with DMEM containing 4% FBS to adjust its concentration to twice the final concentration, and […] thereof was added to the 96-well plate mentioned above. DMSO was used as a control substance. After the addition of the test sample or the control substance (DMSO), the mixture was incubated at 37° C. for 24 hours in a 5% CO2 environment.
(1-4) Measurement of Luciferase Activity
The luciferase activity was measured using Dual-Luciferase(R) Reporter Assay System (a product of Promega K.K.). The culture solution was removed from the 96-well plate. The cells were washed with PBS(−), and moisture was removed therefrom using a paper towel. To the cells, […] of a cell lysis solution (Passive Lysis Buffer) was added, and the 96-well plate was shaken for 15 minutes. The cell extract was transferred at […] to a 96-well luminoplate. A luminescent substrate solution was added thereto at […]. The luminescence intensity based on the luciferase was measured for a measurement time set to 10 seconds using a luminometer (Micro Lumat Plus, a product of Berthold Japan Co., Ltd.).
The PPARγ-activating effect of the test sample was evaluated on the basis of a ratio (%) relative to controls. In order to correct transfection efficiency, the measured Cypridina luciferase activity value (A) was divided by the measured Renilla luciferase activity value (B) to determine a value (A/B). The average A/B value of the control group was calculated and defined as 100. The A/B value of the test sample was calculated, and the ratio (%) of this value to the average value of the controls was used as the ability of the test sample to activate PPARγ.
Their PPARγ ligand activity was measured in the same way as in Example 7 except that the incubation time after the test sample addition was set to 48 hours. The values shown in the table below and the ordinate of the drawing depict the ratio (%) of the activity of each synthesized product to the activity of the control substance (DMSO). In Table 1 and FIG. 13, these various butenolide compounds used as test samples were each indicated by the functional group of R^2 in the formula (1).

UCP-1 gene = assay: Measurement of UCP-1 gene expression level in mesenchymal cell line 10T1/2; type: cell-based; conditions: 10T1/2 cells; 100 μg/mL; 24 hours; FIG. 11
Source text: Mitochondrial uncoupling proteins (or uncoupling proteins: UCPs) have the function of uncoupling oxidative phosphorylation reaction in the mitochondrial inner membrane to consume the energy as heat. Among them, UCP-1 is specifically expressed in brown fat cells that produce heat by burning fat. In recent years, particular synthetic PPARγ agonists have been reported to convert white fat cells working to store fat to brown fat cells working to burn fat (H. Ohno et al, Cell metabolism, 2012, Vol. 15, pp. 395-404).
The test was conducted as follows: a mesenchymal cell line 10T1/2 was inoculated at 1×10^4 cells/mL to a 12-well plate. The cells were cultured until confluent. Then, the fraction of peak 5 (5H4PB) was added thereto such that its final concentration was 100 μg/mL. DMSO was used as a control substance. Twenty-four hours after the sample addition, mRNA was recovered from the cells, and the mRNA level was determined. The mRNA quantification was carried out using LightCycler(R) (Roche Applied Science). The ordinate of the drawing depicts the ratio of the UCP-1 expression level for the fraction of peak 5 to the UCP-1 expression level for the control substance (DMSO). […] The increased expression level of UCP-1 indicates enhanced heat production from lipids.

[2] = tested on: liver (hepatocytes) of C57BL/6J mice fed with a high-fat diet; assay: Influence of administration on liver tissue (histopathological examination); type: in vivo, mouse; conditions: 12 weeks, high-fat diet
Source text: In Example 13, the liver was collected during the collection of fat tissues from each individual and histopathologically examined. The findings from the histopathological examination were as described below.
For the individuals of the normal group, the deposition of fat droplets was not observed in the hepatocytes, whereas only the very mild infiltration of inflammatory cells was observed.

[3] = test sample concentration 0.032 μg/mL, incubation 48 hours
[4] = test sample concentration 0.08 μg/mL, incubation 48 hours
[5] = test sample concentration 0.16 μg/mL, incubation 48 hours
[6] = test sample concentration 0.4 μg/mL, incubation 48 hours
[7] = test sample concentration 0.8 μg/mL, incubation 48 hours, * = twice or more vs control, p<0.05
[8] = test sample concentration 2 μg/mL, incubation 48 hours, * = twice or more vs control, p<0.05
[9] = test sample concentration 4 μg/mL, incubation 48 hours, * = twice or more vs control, p<0.05

Structure (SMILES): Cc1ccc(C2=CC(=O)OC2O)cc1 (stereo not drawn)
- PPARγ ligand activity of butenolide compounds (in words) ([1]; Example 8, incubation 48 hours, Table 1 and FIG. 13, listed as 5-hydroxy-4-(4-methylphenyl)butenolide): high activity in a low concentration range; also recorded: highest activity
- PPARγ ligand activity, ratio (%) of the activity of each synthesized product to the activity of the control substance (DMSO) [1, 3]: 170%
- PPARγ ligand activity, ratio (%) of the activity of each synthesized product to the activity of the control substance (DMSO) [1, 4]: 110%
- PPARγ ligand activity, ratio (%) of the activity of each synthesized product to the activity of the control substance (DMSO) [1, 5]: 120%
- PPARγ ligand activity, ratio (%) of the activity of each synthesized product to the activity of the control substance (DMSO) [1, 6]: 180%
- PPARγ ligand activity, ratio (%) of the activity of each synthesized product to the activity of the control substance (DMSO) [1, 7]: 260* %
- PPARγ ligand activity, ratio (%) of the activity of each synthesized product to the activity of the control substance (DMSO) [1, 8]: 560* %
- PPARγ ligand activity, ratio (%) of the activity of each synthesized product to the activity of the control substance (DMSO) [1, 9]: 710* %

Structure (SMILES): O=C1C=C(c2ccccc2)C(O)O1 (single isomer, unassigned) [5H4PB, 5-hydroxy-4-phenylbutenolide]
- PPARγ ligand activity of the fraction of peak 5 ([1]; 50 μg/mL and 100 μg/mL, FIG. 9): elevate in a concentration-dependent manner
- PPARγ ligand activity of peak fractions ([1]; final concentration 100 μg/mL, FIG. 7): distinct PPARγ ligand activity
- expression level of UCP-1 (mRNA) relative to control substance (DMSO) (UCP-1 gene): effect of elevating the expression level of UCP-1

Structure (SMILES): O=C1C=C(Cc2ccccc2)C(O)O1 (stereo not drawn) [Benzyl, 5-hydroxy-4-benzylbutenolide]
- PPARγ ligand activity, ratio (%) of the activity of each synthesized product to the activity of the control substance (DMSO) [1, 3]: 120%
- PPARγ ligand activity, ratio (%) of the activity of each synthesized product to the activity of the control substance (DMSO) [1, 4]: 220%
- PPARγ ligand activity, ratio (%) of the activity of each synthesized product to the activity of the control substance (DMSO) [1, 5]: 110%
- PPARγ ligand activity, ratio (%) of the activity of each synthesized product to the activity of the control substance (DMSO) [1, 6]: 130%
- PPARγ ligand activity, ratio (%) of the activity of each synthesized product to the activity of the control substance (DMSO) [1, 7]: 170%
- PPARγ ligand activity, ratio (%) of the activity of each synthesized product to the activity of the control substance (DMSO) [1, 8]: 310* %
- PPARγ ligand activity, ratio (%) of the activity of each synthesized product to the activity of the control substance (DMSO) [1, 9]: 360* %

Now from value to molecule:

- PPARγ ligand activity, ratio (%) of the activity of each synthesized product to the activity of the control substance (DMSO) [1, 3]: 130%
- PPARγ ligand activity, ratio (%) of the activity of each synthesized product to the activity of the control substance (DMSO) [1, 4]: 110%
- PPARγ ligand activity, ratio (%) of the activity of each synthesized product to the activity of the control substance (DMSO) [1, 5]: 120%
- PPARγ ligand activity, ratio (%) of the activity of each synthesized product to the activity of the control substance (DMSO) [1, 6]: 130%
- PPARγ ligand activity, ratio (%) of the activity of each synthesized product to the activity of the control substance (DMSO) [1, 7]: 140%
- PPARγ ligand activity, ratio (%) of the activity of each synthesized product to the activity of the control substance (DMSO) [1, 8]: 130%
- PPARγ ligand activity, ratio (%) of the activity of each synthesized product to the activity of the control substance (DMSO) [1, 9]: 240* %
- PPARγ ligand activity, ratio (%) of the activity of each synthesized product to the activity of the control substance (DMSO) ([1]; test sample concentration 10 μg/mL, incubation 48 hours, * = twice or more vs control, p<0.05): 340* %
- PPARγ ligand activity, ratio (%) of the activity of each synthesized product to the activity of the control substance (DMSO) ([1]; test sample concentration 20 μg/mL, incubation 48 hours, * = twice or more vs control, p<0.05): 520* %
Structure (SMILES): Cc1ccc(CC2=CC(=O)OC2O)cc1 (stereo not drawn) [Methylbenzyl, 5-hydroxy-4-(4-methylbenzyl)butenolide]

- deposition of fat droplets in the hepatocytes ([2]; 0.037 μg/kg/day): very mild to mild depositions
- deposition of fat droplets in the hepatocytes ([2]; 10 mg/kg/day): moderate deposition
- swelling of hepatocytes ([2]; 10 mg/kg/day): mildly swollen
Structure (SMILES): CN(CCOc1ccc(CC2SC(=O)NC2=O)cc1)c1ccccn1 (stereo not drawn) [rosiglitazone, reference compound]
